Data published in patent publication US20240390327A1, “THERAPEUTIC COMPOSITIONS AND METHODS” (Johns Hopkins University, priority 2021, published 2024).
“Also recorded” adds a separate entry of the source.

Columns and labels:
CAM-IVH rats = test: Intra-aural distance (macrocephaly) in CAM-IVH model of PHHP; format: in vivo, rat; conditions: treatment P2-P10, followed through P21
Protocol: For each experiment with a statistical analysis, a power analysis was performed to estimate the required sample size (G*Power 3.1.9.3). We used preliminary and published data to estimate means and standard deviations for each group for the primary outcomes of intra-aural distance, ventriculomegaly, neurodevelopmental assessment, qPCR, and DTI analyses (Farkas et al., 2009; Yung et al., 2011; Baharnoori et al., 2012; Jantzie et al., 2014a,b, 2018; Robinson et al., 2016). Scanning electron microscopy qualitative analysis of EMC was set a priori as two per group. Primary endpoints were set a priori as described in the text, and were daily (P4-P15 and P21) for IAD and neurodevelopment, P5 for ventriculomegaly, P15 for periventricular YAP mRNA, and P21 for remaining assays. No animals were individually excluded except, as noted in the text, those who were removed prior to P21 due to poor health. DTI images from one rat were excluded due to poor image acquisition quality prior to quantification. Rats from both institutions and at least two separate litters were used for all experiments, except rats for SEM were prepared at one institution. Rats from both sexes were randomly assigned to injury (CAM versus sham at E18, IVH versus vehicle at P1) and to treatment group (EPO+MLT or vehicle on P2 for CAM-IVH rats). […]

naïve rats = test: EPO+MLT regimen in naïve neonatal rats, unanticipated effects; format: in vivo, rat; conditions: doses administered the same time of day
Protocol: To test if EPO+MLT could prevent the onset of PHHP, on P2 CAM+IVH rats were randomized to receive either EPO+MLT or vehicle from P2 (equivalent to approximately 32 weeks human gestation) to P10 (full term in humans). Six doses of EPO (2500 U/kg/dose i.p.) or vehicle were administered on P2-P5, P7 and P9. Nine doses of MLT (20 mg/kg/dose i.p.) or vehicle were administered on P2-P10. A subset of 36 CAM-IVH pups were randomized to receive vehicle, EPO alone, MLT alone, or EPO+MLT to test impact of treatment on macrocephaly. […] To determine if EPO+MLT had any unanticipated effect on normal neurodevelopment, a set of naïve pups underwent EPO+MLT treatment.
Neurodevelopmental battery included nine tests (surface righting, negative geotaxis, cliff aversion, forelimb grasp, audio startle, eye opening, ear twitch, forelimb placement, and air righting) (Farkas et al., 2009; Bahamoori et al., 2012). Since no differences with audio startle or eye opening were noted across groups, these two tests were not included for naïve rats. Observers blinded to injury and treatment group tested 146 rats each day from P4 to P15, and then at P21.
To determine if the progressive macrocephaly and poor cliff aversion performance observed in CAM-IVH rats was preventable, we assessed the efficacy of combined EPO+MLT treatment in the neonatal period in a separate cohort of rats (n=88). […]

[1] = tested on: rats with PCL syndrome (LPS plus Poly IC); test: Nociception (mechanical allodynia, thermal hypersensitivity) in Post-COVID Like (PCL) model; format: in vivo, rat; conditions: chronic pain lasting greater than 2 months
Protocol: LPS (3 mg/kg ip) is given to prime the immune system of rats on postnatal (P) 45, 46 and P47. Subsequently, Poly IC (2, 3, or 5 mg/kg ip) is given on P55 to mimic a viral exposure. The response to these stimuli are studied in the following acute, subacute and chronic timepoints. Pain and activity in an open field are outcome measures we use routinely to track the development of the PCL syndrome.
For experimental design and development of pel syndrome with cognitive assessment, LPS (3 mg/kg ip) is given to prime the immune system of rats on postnatal (P) 45, 46 and P47. Subsequently, Poly IC (5 mg/kg ip) is given on P55 to mimic a viral exposure. The response to these stimuli are studied in the following acute, subacute and chronic timepoints. Pain and Activity in an Open Field are outcome measures we use routinely to track the development of the PCL syndrome. Similarly, Touchscreen cognitive assessment occurs simultaneously throughout the Acute, SubAcute and Chronic Phases. Using a touchscreen assessment platform, we first assess visual discrimination. We then assess cognitive flexibility through a test of reversal learning, and then a test of attention called 5 choice serial reaction (5CSRTT).
After priming the immune system with systemic lipopolysaccharide (LPS) on postnatal day 45-47, rats receive the viral mimetic poly(I:C) on P55.

rats with PCL syndrome = test: Diffusion tensor imaging in PCL model; format: in vivo, rat; conditions: 11.7T MRI
Protocol: Diffusion Tensor Imaging was performed on an 11.7T Bruker MRI scanner. These images were processed to assign directional colors ([…] transverse, blue vertical, and green orthogonal to the plane).

PBMCs = test: PBMC secretome after buprenorphine stimulation in culture; conditions: P21 PBMCs, 3 h culture; EPO 10 U/mL + MLT 20 μM; naloxone 10 μM
[2] = tested on: rats with prenatal injury (TSHI plus intra-amniotic LPS); test: Open field after prenatal injury (chorioamnionitis model of cerebral palsy); format: in vivo, rat; conditions: P28-P30 open field
From the text: As placental structure and function is of significant clinical importance to neurologic sequelae in preterm survivors (59-61), we use a prenatal model of in utero transient systemic HI (TSHI) and intra-amniotic lipopolysaccharide (LPS) administration in pregnant rats (62-64). This approach capitalizes on an intact maternal-placental-fetal unit and is a model of PBI from extreme preterm birth (<28 weeks of gestation) that mimics dual intrauterine injury from placental underperfusion and chorioamnionitis (65). Briefly, under isoflurane anesthesia, a laparotomy is performed on embryonic day (E) 18. Uterine arteries are clamped for 60 min and followed by intra-amniotic injections of LPS (4 μg/sac; 0111:B4, Sigma, St. Louis, MO, USA) (62, 64, 65). Sham controls undergo anesthesia and laparotomy for 60 min without arterial clamping or LPS injections. Following closure of the laparotomy, dams receive narcotic pain medication, recover, and pups are born vaginally at E22, approximately equal to 30-32 weeks in human gestation. We have previously reported the effects of TSHI and LPS alone, and in concert, on CNS pathological hallmarks, functional motor outcomes, histologic placental injury, and expression of common pro-inflammatory cytokines (63, 64).
When EPO was administered in isolation, it was given from P1 to P5 at 2,000 U/kg/dose as previously published (47, 48, 54, 55, 71, 72). […]

[3] = tested on: patients (adult traumatic brain injury; pediatric and neonatal trials); conditions: cited from earlier work

Molecule	intra-aural distance (IAD), progressive macrocephaly (CAM-IVH rats)	impact on the circadian rhythm (naïve rats)	chronic thermal hypersensitivity [1]	white matter microstructural integrity (directional color DTI) (rats with PCL syndrome)	secretion of interferon gamma and IL-6 by PBMCs treated with buprenorphine (PBMCs)	disinhibition (open field) [2]	adverse events in pediatric and neonatal EPO trials ([3]; high-dose, extended EPO regimens)	adverse events in meta-analyses of EPO for severe adult traumatic brain injury ([3]; versus placebo)
COc1ccc2[nH]cc(CCNC(C)=O)c2c1 [MLT, N-acetyl-5-methoxytryptamine]	the IADs were not significantly different compared littermates that received vehicle	no impact was evident	neither ROX nor MLT alone	the microstructural integrity is altered and the colors are muted	–	–	–	–
C=CCN1CC[C@]23c4c5ccc(O)c4O[C@H]2C(=O)CC[C@@]3(O)[C@H]1C5 [naloxone]	–	–	–	–	blocked the secretion of these proinflammatory mediators	–	–	–
EPO: erythropoietin compound or erythropoietin, in particular human recombinant erythropoietin	the IADs were not significantly different compared littermates that received vehicle	–	–	–	–	does not; also recorded: did not improve disinhibition	no adverse events have emerged with high-dose, extended EPO regimens in neonatal trials	no adverse events were evident compared to placebo treatment
